In PubChem BioAssay AID179 (DTP/NCI, 2004):
Calls of active or inactive are those of the source.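 How the source made its calls: active means compounds giving half or more protection of infected cells from virus-caused growth loss, again on retest; inactive means the rest.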 *1 amine or outer side, *2 acyl side, *3 side chain or, on linkers, in order; H or OH if unused. Where a SMILES comes first, the peptide text is derived from it. Bridges are numbered along the chain shown (N, C = ends). Roman numbers before positions name the chains, in order. [ ]: non-standard residue; d: D form. Actinocin(9to1) = Cc1c2oc3c(C)ccc(C(=O)[*:1])c3nc-2c(C(=O)[*:2])c(N)c1=O; aThr = C[C@H](O)[C@H](N)C(=O)O; NMeV = CN[C@H](C(=O)O)C(C)C; Sar = CNCC(=O)O

System: CEM cells HIV-1 protection, formazan growth assay
Experiment: NCI AIDS Antiviral Assay
Conditions: for IC50: measured here: growth of uninfected CEM cells
Outline: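 Screen of anti-HIV-1 activity in human CEM cells using a formazan-based growth measurement at five drug concentrations. Hits with 50% or greater protection were repeated, and confirmation required reproducible complete protection.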

| Structure (SMILES) | EC50 [µM] | IC50 [µM] | outcome |
| --- | --- | --- | --- |
| O=C(/C=C/c1cccc2ccccc12)c1ccccc1Cl | > 12.9 | 11 | – |
| N#C/C(=C\c1ccc([N+](=O)[O-])cc1)C(=O)c1ccccc1 | > 45.7 | 24.5 | – |
| NC(CS)=NC1CCCCC1 | > 200 | 107 | – |
| Cc1nc(N)c(N2CCN(Cc3ccccc3)CC2)c(=O)[nH]1 | > 200 | > 200 | – |
| COC(=O)C1(C(=O)OC)Cc2ccc(C)cc2C2=C1C(=O)c1ccccc1C2=O | > 200 | 5.13 | – |
| C=C1CC[C@@H]2C(C)(C)C(O)CCC2(C)C1COc1ccc2ccc(=O)oc2c1 (stereo partly specified) | > 67.6 | 36.3 | – |
| CCOC(=O)C1C(=O)CN2CCc3c([nH]c4ccccc34)C12 (stereo unspecified) | > 29.5 | > 29.5 | – |
| COC1/C=C/OC2(C)Oc3c(C)c(O)c4c(O)c(c(/C=N/N(C)C(C)C(O)c5ccccc5)c(O)c4c3C2=O)NC(=O)C(C)=C/C=C/C(C)C(O)C(C)C(O)C(C)C(OC(C)=O)C1C (stereo unspecified) | > 200 | 9.55 | – |
| CS(=O)(=O)c1nc2ccc(N3C(=O)c4ccccc4C3=O)cc2s1 | – | – | inactive |
| CS(=O)(=O)OC1C(COC(=O)c2ccccc2)OC2C1Oc1nc(=O)ccn12 (stereo unspecified) | > 200 | > 200 | – |
| CCNC(=S)NNC(=O)C12CC3CC(CC(C3)C1)C2 | > 200 | > 200 | – |
| OCC(O)CSSCC(O)C(O)CSSCC(O)CO (stereo unspecified) | – | – | inactive |
| COc1ccc(Cl)cc1NC(=O)c1ccco1 | > 200 | > 200 | – |
| CCN(CC)CCOC(=O)/C=C/c1ccccc1 | – | – | inactive |
| COc1cc2cc(C(=O)N3CC(CCl)c4ccc([N+](C)(C)Cc5ccccc5[N+](=O)[O-])cc43)[nH]c2c(OC)c1OC (stereo unspecified) | > 20 | 2.24 | – |
| COC(=O)C(Cc1c[nH]c2ccccc12)NP(=O)(O)OCC1OC(n2cc(Br)c(=O)[nH]c2=O)CC1O (stereo unspecified) | > 200 | > 200 | – |
| Cc1ccc(S(=O)(=O)N2CC2CCCCC=O)cc1 (stereo unspecified) | > 200 | 31.6 | – |
| O=C(O)c1c2c(cc3c(=O)cc(-c4ccccc4)oc13)CCCC2 | – | – | inactive |
| Cn1c2ccccc2c(=S)c2c(O)cc3c(c21)C=CC(C)(C)O3 | > 200 | > 200 | – |
| O=C1c2ccccc2C(=O)c2cscc21 | > 77.6 | 18.6 | – |
| CCOC(=O)/C=C/[C@H](O[Si](CC)(CC)CC)C(C)(C)C | > 200 | > 200 | – |
| COc1cccc(C=C2C(=O)NC(=O)NC2=O)c1 | > 145 | > 145 | – |
| CC1=NNB(O)c2sccc21 | > 562 | 145 | – |

| Structure (SMILES) | EC50 [µM] | IC50 [µM] | outcome |
| --- | --- | --- | --- |
| COc1cccc(/C=N/NC(=O)c2ccccc2[O-])c1[O-].[Cu+2].[OH3+] | > 200 | > 200 | – |
| Cc1cc2c(=O)cc(-c3ccc(O)cc3)oc2c(C(=O)O)c1C | – | – | inactive |
| NS(=O)(=O)c1ccc(NNc2c3ccccc3nc3c(C(=O)Nc4ccc(S(N)(=O)=O)cc4)cccc23)cc1 | > 200 | 10.5 | – |
| Nc1ccc(C(=O)N/C(=C\c2ccc3c(c2)OCO3)c2nc3[nH]c(=S)[nH]c(=O)c3[nH]2)cc1 | – | – | inactive |
| COc1ccc(NC(=O)CSc2nc(C)nc3c2sc(=S)n3-c2ccccc2)cc1 | > 200 | > 200 | – |
| CN(C)P(=O)(/C(N)=N/Nc1ccc([N+](=O)[O-])cc1)N(C)C | > 158 | 155 | – |
| CCOC(=O)Cc1nc(Cl)c2c(C)c(C)sc2n1 | > 174 | 38.9 | – |
| Oc1ccc(C23CC4CC(CC(C4)C2)C3)cc1 | – | – | inactive |
| COC(=O)Cc1ccc2c(cnn2-c2ccccc2)c1OC | > 200 | 89.1 | – |
| CC(C)=CCS(=O)c1ccccc1NC1=CC(=O)CC(C)(C)C1 (stereo unspecified) | – | – | inactive |
| COc1ccc(/C=C/c2cc(OC)c(OC)c(OC)c2)cc1O | > 10 | 0.145 | – |
| CC(C)N=C=NC(C)C | > 380 | > 380 | – |
| Cc1cc(C#N)c(Nc2c(C)cccc2[N+](=O)[O-])s1 | > 200 | 158 | – |
| COC(=O)C(/C(=N/N)C(=O)Nc1cc(Cl)ccc1Cl)c1nc2ccc([N+](=O)[O-])cc2[nH]c1=O (stereo unspecified) | > 138 | > 138 | – |
| Cc1c2oc3c(C)ccc(C(=O)N[C@@H]4C(=O)N[C@H](C(C)C)C(=O)N5CCC[C@H]5C(=O)N(C)CC(=O)N(C)[C@@H](C(C)C)C(=O)O[C@H]4C)c3nc-2c(C(=O)N[C@@H]2C(=O)N[C@H](C(C)C)C(=O)N3CCC[C@H]3C(=O)N(C)CC(=O)N(C)[C@@H](C(C)C)C(=O)O[C@H]2C)c(N)c1=O (I: [aThr][dV]P[Sar][NMeV] / II: [aThr][dV]P[Sar][NMeV]; ester I:1-I:C, II:1-II:C; linker I:N-II:N via Actinocin(9to1)) | > 0.302 | 9.55e-05 | – |
| C/C(Cc1[nH]nc2c1c(=O)oc1ccc3ccccc3c12)=N\N | > 200 | 12.6 | – |
| O=c1oc2ccccc2cc1-c1ccccc1 | > 162 | > 162 | – |
| Cc1csc(/N=C\c2c(O)c3ccccc3oc2=O)n1 | > 200 | 36.3 | – |
| CCCCCCCCCCCCCCC[C@@H](O)C[N+](C)(C)CCO | > 200 | 2.82 | – |
| NCC(SSC(CN)C(=O)O)C(=O)O (stereo unspecified) | > 200 | > 200 | – |
| CN(C)c1ccc(/C=C/C=C2\C=Cc3ccccc32)cc1 | > 36.3 | > 36.3 | – |
| Cc1oc2nc(N(C)C)n3c(C)nnc3c2c1C | – | – | inactive |
